In US8076295B2, “Peptide amphiphiles having improved solubility and methods of using same” (Nanotope, Inc., priority 2007, dated 2011):
Entries after “also recorded” stand apart in the source; their conditions may differ. Where a SMILES comes first, the peptide text is derived from it. The star is where a group is joined. Palmitoyl = CCCCCCCCCCCCCCCC(=O)*

How the values were obtained:
Assay type in all cases: physicochemical
[1] = Solubility in aqueous ammonium hydroxide buffer; settings: for solubility: water containing 0.1 vol % ammonium hydroxide, water containing 0.1% by volume ammonium hydroxide
Procedure: SEQ ID NO:2 or SEQ ID NO:4 was dissolved at 20 mg/mL in an aqueous solution with sufficient ammoniumhydroxide to obtain a pH of 9. This solution was purified in 5 mL aliquots using an Agilent, Inc. model 1100 preparative HPLC equipped with a Phenomenex, Inc. Gemini® 5 μm C18 column (100×30 mm). An elution gradient of water and acetonitrile (each containing 0.1 vol % ammonium hydroxide buffer) was used, as shown in FIG. 2A. The flow rate was 15 mL/min, and the mobile phase was pre-heated to ca. 45° C. using a Timberline Instruments TL-105 column heater.
While the amino acid sequence change between SEQ ID NO:2 and SEQ ID NO:6 appears at first glance to be relatively minor, it nevertheless confers several important and unexpected consequences. The additional glutamic acid residue increases the aqueous solubility and broadens the type of aqueous buffers in which the molecule is soluble. Absent this modification, the only amino acid side chains that are ionized under physiological conditions in SEQ ID NO:6 form a zwitterion (e.g. Glu-Ile-Lys), which limits the molecule's solubility in most aqueous buffers. […] This change has important implications for the manufacturability and clinical development of the peptide amphiphile, as solubility in an ammonium hydroxide buffer greatly facilitates purification by HPLC.
This seemingly insignificant modification (the deletion of one methylene group from the residue) results in a greater than 20-fold increase in aqueous solubility of the peptide amphiphile in an ammonium hydroxide buffer, greatly facilitating purification by HPLC (see FIG. 2D).

[2] = Gelation kinetics and rheological properties of gels formed in artificial cerebrospinal fluid (rheometer); settings: for tan(δ) (loss modulus divided by storage modulus): gel in artificial cerebrospinal fluid
Procedure: Chemical structures for these molecules are also depicted in FIG. 1. Experiments were performed to examine the gelation kinetics and rheological properties of SEQ ID NO:2 with SEQ ID NO:6. Peptide amphiphile samples were dissolved in water at a concentration of 10 mg/mL.
A Physica, Inc. MCR 300 Molecular Compact Rheometer equipped with a 25 mm plate was used to measure stiffness of gels formed by SEQ ID NO:2 and SEQ ID NO:6 in vitro. Samples were measured at 21° C., 0.5% shear strain, with a frequency (ω) of 10 Hz and a gap between the plates of 0.5 mm. G′ (storage modulus) and […] were measured with respect to time post-gelation.
Tan(δ) (defined as the loss modulus divided by the storage modulus) quantifies the balance between energy loss and energy storage in a material, regardless of viscosity.

[3] = Dissolution in water on pH adjustment with NaOH; settings: 5 mg/mL in water, pH adjusted to 7.0-7.5 with NaOH
Procedure: The lyophilized peptide amphiphile powder was weighed and re-dissolved in USP pharmaceutical grade water at a concentration of 5 mg/mL. The colloidal suspension obtained was agitated in an ultrasonic bath for 30 min.

[4] = 21° C., 0.5% shear strain, 10 Hz

| SMILES | solubility [1] [mg/mL] | self-assembly / gel formation induced by artificial CSF ([2]; 10 mg/mL in water mixed with equal volume of artificial CSF) | tan(δ) (loss modulus divided by storage modulus) [2, 4] | complex shear modulus (G*) compared with SEQ ID NO:6 ([2]; one hour post-gelation, 10 mg/mL solution mixed with equal volume of artificial CSF, 21° C., 0.5% shear strain, 10 Hz) | dissolution of colloidal suspension on pH adjustment [3] | increase in aqueous solubility relative to SEQ ID NO:6 ([1]; ammonium hydroxide buffer) | solubility (in words) ([1]; 0.1 vol % ammonium hydroxide aqueous buffer) |
| --- | --- | --- | --- | --- | --- | --- | --- |
| CCCCCCCCCCCCCCCC(=O)N[C@@H](CO)C(=O)N[C@@H](CC(C)C)C(=O)N[C@@H](CO)C(=O)N[C@@H](CC(C)C)C(=O)N[C@@H](C)C(=O)N[C@@H](C)C(=O)N[C@@H](C)C(=O)N[C@@H](CCC(=O)O)C(=O)N[C@@H](CCC(=O)O)C(=O)N[C@H](C(=O)N[C@@H](CCCCN)C(=O)N[C@H](C(=O)N[C@@H](C)C(=O)N[C@H](C(=O)O)C(C)C)C(C)C)[C@@H](C)CC [SEQ ID NO:2, C16H31O-Ser-Leu-Ser-Leu-Ala-Ala-Ala-Glu-Glu-Ile-Lys-Val-Ala-Val-OH] (Palmitoyl-SLSLAAAEEIKVAV-OH) | > 20 | resulting in a gel with the desired properties | significantly lower | an order of magnitude greater | go readily into solution |  |  |
| CCCCCCCCCCCCCCCC(=O)N[C@@H](CO)C(=O)N[C@@H](CC(C)C)C(=O)N[C@@H](CO)C(=O)N[C@@H](CC(C)C)C(=O)N[C@@H](C)C(=O)N[C@@H](C)C(=O)N[C@@H](C)C(=O)N[C@@H](CC(=O)O)C(=O)N[C@H](C(=O)N[C@@H](CCCCN)C(=O)N[C@H](C(=O)N[C@@H](C)C(=O)N[C@H](C(=O)O)C(C)C)C(C)C)[C@@H](C)CC [SEQ ID NO:4, C16H31O-Ser-Leu-Ser-Leu-Ala-Ala-Ala-Asp-Ile-Lys-Val-Ala-Val-OH] (Palmitoyl-SLSLAAADIKVAV-OH) | > 20 |  |  |  | go readily into solution | greater than 20 fold |  |
| CCCCCCCCCCCCCCCC(=O)N[C@@H](CO)C(=O)N[C@@H](CC(C)C)C(=O)N[C@@H](CO)C(=O)N[C@@H](CC(C)C)C(=O)N[C@@H](C)C(=O)N[C@@H](C)C(=O)N[C@@H](C)C(=O)N[C@@H](CCC(=O)O)C(=O)N[C@H](C(=O)N[C@@H](CCCCN)C(=O)N[C@H](C(=O)N[C@@H](C)C(=O)N[C@H](C(=O)O)C(C)C)C(C)C)[C@@H](C)CC [SEQ ID NO:6, C16H31O-Ser-Leu-Ser-Leu-Ala-Ala-Ala-Glu-Ile-Lys-Val-Ala-Val-OH, reference compound] (Palmitoyl-SLSLAAAEIKVAV-OH) | < 1 |  | liquid-like |  |  |  | relatively low solubility; also recorded: only sparingly soluble |
